In paper PMC10818523, “Novel Flurbiprofen Derivatives as Antioxidant and Anti-Inflammatory Agents: Synthesis, In Silico, and In Vitro Biological Evaluation” (Molecules, 2024):
Like-named read-outs stand apart in the source and are kept apart here.

Tests used:
[1] = Hydrogen peroxide scavenging activity (HPSA); format: biochemical; conditions: antioxidant activity, H2O2 scavenging, 10 min at 37 °C, mean ± SD of triplicates
Method: The Manolov et al. method was used to assess the hydrogen peroxide scavenging capability. A 43 mM solution of H2O2 was prepared in potassium phosphate buffer solution (0.2 M, pH 7.4). The analysis of the samples was carried out as follows: in test tubes, 0.6 mL H2O2 (43 mM), 1 mL sample or reference compounds with different concentrations (20–1000 µg/mL), and 2.4 mL potassium phosphate buffer solution were mixed. The mixture was stirred and incubated in the dark for 10 min at 37 °C. Absorbance was measured at 230 nm with a spectrophotometer (Camspec M508, Leeds, UK) against a blank solution containing phosphate buffer and H2O2 without the sample. Ascorbic acid and quercetin were used as reference compounds. The percentage HPSA of the samples was evaluated by comparing with a blank sample and calculated using the following formula: I,%(HPSA)=Ablank−(ATS−ACS)/Ablank×100 where Ablank is the absorbance of the blank sample, ACS is the absorbance of the control sample, and ATS is the absorbance of the test sample.
(§1) All of the analyses were made in triplicates. Data were expressed as mean ± SD. The level of significance was set at p < 0.05. The mean IC50 value was estimated based on three replicates by interpolating the graphical dependence of activity on concentration. Statistical program SPSS 19.0 software was used for data analysis by one-way ANOVA followed by Duncan’s post hoc test to evaluate differences between mean values of activities (SPSS Inc., Chicago, IL, USA).

bovine trypsin = biological target: T1, bovine trypsin (Bos taurus, UniProt P00760); test: Antitryptic activity (ATA); format: biochemical; conditions: human albumin as substrate, mean ± SD of triplicates
T1 sequence (P00760 24-246): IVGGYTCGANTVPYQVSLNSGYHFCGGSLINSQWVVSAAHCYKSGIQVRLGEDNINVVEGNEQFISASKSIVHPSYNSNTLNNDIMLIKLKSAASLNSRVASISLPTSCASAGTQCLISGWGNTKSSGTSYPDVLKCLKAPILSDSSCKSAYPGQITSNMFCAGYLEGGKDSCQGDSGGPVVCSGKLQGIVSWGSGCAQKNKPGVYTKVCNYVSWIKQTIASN
Method: This method is known also as an in vitro anti-arthritic activity. The analysis was performed according to the method of Oyedapo and Femurewa with minor modification as described by Manolov et al.. The reaction mixture was containing 2 mL 0.06 mg/mL bovine trypsin, 1 mL Tris-HCl buffer (20 mM, pH 7.4) and 1 mL test sample or reference (in methanol) of different concentrations (20-1000 μg/mL). The mixture was incubated at 37 °C for 5 min. Then 1 mL of human albumin (4% v/v) was added. The mixture was incubated for an additional 20 min. To the mixture 2 mL of 70% perchloric acid was added for termination of the reaction. The cloudy suspension was cooled and centrifuged at 5000 rpm for 20 min. The absorbance of the supernatant was measured at 280 nm with a spectrophotometer ([…], UK) against control solution. The control solution was sample or reference in methanol with different concentrations. Ibuprofen and flurbiprofen were used as reference compounds. The analysis was performed three times. The percentage of antitryptic activity (ATA) of the samples was evaluated by comparing with a blank sample. The blank sample is prepared as the test sample but with a small exception-perchloric acid is added before albumin. %ATA=Ablank-ATS-ACS/Ablank×100 where Ablank is the absorbance of the blank sample, ACS is the absorbance of the control solution (test sample in different concentrations) and ATS is the absorbance of the test samples. All of the analyses were made in triplicates. Data were expressed as mean ± SD. The level of significance was set at p < 0.05. The mean IC50 value was estimated based on three replicates by interpolating the graphical dependence of activity on concentration. Statistical program SPSS 19.0 software was used for data analysis by one-way ANOVA followed by Duncan's post hoc test to evaluate differences between mean values of activities (SPSS Inc., Chicago, IL, USA).

[2] = Experimental determination of lipophilicity (RM), reversed-phase thin-layer chromatography; format: physicochemical; conditions: dimensionless, from thin-layer chromatography Rf
Description: Lipophilicity can be assessed through either calculation or experimental methods. In our study, we determined the lipophilicity of the resulting flurbiprofen derivatives using a practical approach, employing reversed-phase thin-layer chromatography, a technique previously reported by Hadjipavlou-Litina.
The method employed for assessing the lipophilicity of flurbiprofen derivatives followed the procedure outlined by Hadjipavlou-Litina.

human albumin = human albumin (Homo sapiens, UniProt P02768); test: Inhibition of albumin denaturation (IAD); format: biochemical; conditions: heated at 70 °C for 15 min, mean ± SD of triplicates
Method: In vitro analysis of anti-inflammatory activity was assessed as inhibition of albumin denaturation (IAD). The analysis was performed according Manolov et al. method. The experiment was performed with human albumin. The solution of albumin (1%) was prepared in distilled water (pH 7.4). The tested and the reference compounds were dissolved firstly in PBS resulting in 1000 μg/mL stock solutions. Then a series of working solutions with different concentrations (20–500 μg/mL) in PBS were prepared. The reaction mixture was containing 2 mL test sample/reference of different concentrations and 1 mL albumin (1%). The mixture was incubated at 37 °C for 15 min and then heated at 70 °C for 15 min in water bath. After cooling, the turbidity was measured at 660 nm with a spectrophotometer (Camspec M508, Leeds, UK). Ibuprofen and flurbiprofen were used as reference compounds. The experiment was performed three times. Percentage inhibition of albumin denaturation (IAD) was calculated against the control. The control sample is albumin with the same concentration dissolved in distilled water. %IAD=Ablank−Asample/Ablank×100
as §1

rats = test: Prediction of acute rat toxicity by GUSAR software; conditions: from predicted rat LD50, IV

human albumin, sequence (P02768 25-609): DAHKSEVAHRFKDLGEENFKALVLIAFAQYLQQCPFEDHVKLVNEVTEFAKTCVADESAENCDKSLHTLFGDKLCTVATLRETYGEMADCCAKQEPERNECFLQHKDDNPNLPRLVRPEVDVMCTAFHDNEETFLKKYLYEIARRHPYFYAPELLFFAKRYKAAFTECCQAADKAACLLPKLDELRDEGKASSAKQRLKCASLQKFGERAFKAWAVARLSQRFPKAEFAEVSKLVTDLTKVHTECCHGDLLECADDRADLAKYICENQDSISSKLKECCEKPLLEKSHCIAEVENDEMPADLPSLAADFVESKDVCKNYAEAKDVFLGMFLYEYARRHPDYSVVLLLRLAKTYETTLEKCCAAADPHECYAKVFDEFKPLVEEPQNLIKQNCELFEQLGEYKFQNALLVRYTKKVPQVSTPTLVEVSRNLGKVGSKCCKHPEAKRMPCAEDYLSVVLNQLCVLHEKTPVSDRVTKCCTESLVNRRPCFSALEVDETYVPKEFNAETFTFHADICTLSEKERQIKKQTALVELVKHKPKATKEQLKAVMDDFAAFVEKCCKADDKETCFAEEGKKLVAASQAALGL

Row | SMILES | IC50 [1] | IC50 ([1]; listed as ascorbic acid) | IC50 (bovine trypsin) | RM ± SD [2] | IC50 (human albumin; read-out: IAD IC50 ± SD) | toxicity relative to flurbiprofen, intravenous (rats) | IC50 (human albumin; IAD IC50 ± SD) | IC50 ([1]; listed as quercetin)
1 | O=C1O[C@H]([C@@H](O)CO)C(O)=C1O [AA, ascorbic acid] | 141 ± 2 µM | 141 µM | – | – | – | – | – | –
2 | COc1ccc(CCNC(=O)C(C)c2ccc(-c3ccccc3)c(F)c2)cc1OC (centres unmarked) [Compound 4d, N-(3,4-dimethoxyphenethyl)-2-(2-fluoro-[1,1′-biphenyl]-4-yl)propanamide] | 199.5 ± 1.3 µM | – | 215 ± 5 µM | 1.33 ± 0.02 | 173.74 ± 0.13 µM | – | – | –
3 | COc1cccc(CCNC(=O)C(C)c2ccc(-c3ccccc3)c(F)c2)c1 (centres unmarked) [Compound 4b, 2-(2-fluoro-[1,1′-biphenyl]-4-yl)-N-(3-methoxyphenethyl)propanamide] | 201 ± 3.3 µM | – | 208 ± 15 µM | 1.13 ± 0.02 | 188 ± 3 µM | – | – | –
4 | CC(C(=O)NCCc1cccc(Cl)c1)c1ccc(-c2ccccc2)c(F)c1 (centres unmarked) [Compound 4e, N-(3-chlorophenethyl)-2-(2-fluoro-[1,1′-biphenyl]-4-yl)propanamide] | 199 ± 9 µM | – | 198 ± 14 µM | 1.41 ± 0.03 | 193 ± 2.2 µM | four times greater toxicity than flurbiprofen | – | –
5 | CC(C)Cc1ccc(C(C)C(=O)O)cc1 (centres unmarked) [Ibu, ibuprofen, reference compound] | 618 ± 25 µM | – | 1260 ± 44 µM | 1.11 ± 0.01 | – | – | – | –
6 | COc1ccc(CCNC(=O)C(C)c2ccc(-c3ccccc3)c(F)c2)cc1 (centres unmarked) [Compound 4c, 2-(2-fluoro-[1,1′-biphenyl]-4-yl)-N-(4-methoxyphenethyl)propanamide] | 144 ± 10 µM | – | 203 ± 14 µM | 1.21 ± 0.02 | 196.9 ± 0.5 µM | – | – | –
7 | CC(C(=O)NCCc1ccccc1)c1ccc(-c2ccccc2)c(F)c1 (centres unmarked) [Compound 4a, 2-(2-fluoro-[1,1′-biphenyl]-4-yl)-N-phenethylpropanamide] | 223 ± 6 µM | – | 2260 ± 73 µM | 1.24 ± 0.02 | 198 ± 2.3 µM | – | – | –
8 | CC(C(=O)O)c1ccc(-c2ccccc2)c(F)c1 (centres unmarked) [Flu, flurbiprofen] | 1160 ± 64 µM | – | 441 ± 36 µM | 1.37 ± 0.02 | – | – | 339 µM | –
9 | O=c1c(O)c(-c2ccc(O)c(O)c2)oc2cc(O)cc(O)c12 [Qrc, quercetin] | 229 ± 6 µM | – | – | – | – | – | – | 229 µM
